These results are taken from PMC10132233 (Journal of Enzyme Inhibition and Medicinal Chemistry, 2023).

The test system of assay [1] is 22RV1 prostate carcinoma cell line. The assay is described as follows: MTT cytotoxicity assay, 22RV1. Format: cell-based. As to conditions: Homo sapiens, 24 h. The text has this: (§1) Accordingly, we aimed to investigate the cytotoxic potential of this new series against prostate carcinoma cell lines. […] The potent nanomolar cell-based activity of this series of compounds over the tested prostate carcinoma cell line could be attributed to other possible targets in addition to EGFR and HER2 receptors. The presence of the 2-nitroimidazole moiety in the chemical structure of compounds 9a–h could develop possible covalent bonds between the nitroimidazole moiety and some cellular proteins.
(§2) Prostate cancer cell lines (PC3 and 22RV1) of American Type Culture Collection (ATCC) were obtained from Korean Cell Center (KCL). PC3 and 22RV1 cell lines were cultured in Roswell Park Memorial Institute Medium (RPMI) 1640 and Dulbecco’s modified Eagle’s medium (DMEM) (GenDepot, Barker, TX) supplemented with 1% penicillin–streptomycin and 10% foetal bovine serum (FBS). The cells were maintained at 37 °C in a 5% CO2 with a 95% humid atmosphere.
(§3) To further analyse the intracellular cytotoxicity effect of the as-synthesised compounds, MTT assay was performed. Moreover, the experiments were divided into subcategories. In each group, cancer cells were first seeded in 96-well plates (4 × 10^4 cells per well) and then incubated for 24 h at 37 °C in a 5% CO2-containing atmosphere. Subsequently, the medium from the culture plate was removed, and 100 µL of RPMI media containing different concentrations of compounds (0.01, 0.005, 0.0025, 0.00125, and 0.000625 µM) were then added into the cell lines in each well and incubated for 24 h in a 5% CO2 humidified incubator at 37 °C. Afterwards, MTT solution (150 μL, 1 mg/mL) was added to each well, replacing the media-containing compounds. After 4 h of incubation, the MTT reagent was removed, and 200 μL of DMSO was then added to dissolve the formazan crystals, and colour intensity was measured at a wavelength of 540 nm using a BioTek Synergy H1 instrument (BioTek, Winooski, VT). IC50 was calculated according to the equation of Boltzmann sigmoidal concentration–response curve using Graph Pad Prism 5 (La Jolla, CA).
For orientation: Tetrazolium dyes change colour on reduction, which living cells bring about.

Assay [2] deals with T1, cyclin-dependent kinase 2 (CDK2) (Homo sapiens, UniProt P24941).
T1 construct: purchased Reaction Biology Co. (Malvern, PA)
The assay is described as follows: Small kinase panel, CDK2. Format: biochemical. The note with it: read-out: % kinase inhibition (relative to DMSO control) CDK2. As to the method:
(§4) Enzyme inhibitory assays were carried out as described in our previous reports in the literature. […] The HotSpot assay platform includes specific kinase/substrate pairs and required cofactors. The base reaction buffer consisted of 20 mM Hepes (pH 7.5), 10 mM MgCl2, 1 mM EGTA, 0.02% Brij35, 0.02 mg/mL BSA, 0.1 mM Na3VO4, 2 mM DTT, and 1% DMSO. The tested compounds were dissolved in 100% DMSO to a specific concentration, and serial dilution was conducted. The reaction mixture containing the tested compound and 33P-ATP was incubated at room temperature for 2 h, and radioactivity was detected using the filter-binding method.

For the next assay, the target named is EGFR (Homo sapiens, UniProt P00533). The assay is described as follows: HotSpot kinase assay over EGFR (Reaction Biology).
Assay [3] concerns the target T2, vascular endothelial growth factor receptor 2 (VEGFR2) (Homo sapiens, UniProt P35968).
T2 construct: purchased Reaction Biology Co. (Malvern, PA)
The assay is described as follows: Small kinase panel, VEGFR2. Type of assay: biochemical. As to conditions: read-out: % kinase inhibition (relative to DMSO control) VEGFR2. As to the method: as §4

Another assay has as its target HER2 (Homo sapiens, UniProt P04626). The assay is described as follows: HotSpot kinase assay over HER2 (Reaction Biology).
For assay [4], the target named is T3, fibroblast growth factor receptor 1 (FGFR1) (Homo sapiens, UniProt P11362).
T3 construct: purchased Reaction Biology Co. (Malvern, PA)
The assay is described as follows: Small kinase panel, FGFR1. Format: biochemical. As to conditions: read-out: % kinase inhibition (relative to DMSO control) FGFR1. Here is the method:
as §4

In the next assay the test system is 22RV1 cells. The assay is described as follows: Cell cycle analysis (PI, ADAMII LS), 22RV1. Type of assay: cell-based, human. The note with it: 22RV1, compound at its IC50, 24 h. As to the method: Cell cycle progression is responsible for normal cell growth and proliferation. DNA damage can result in apoptosis, which causes cell death, or DNA repair. At specific checkpoints that serve as control mechanisms to guarantee correct cell division, the state of the cells is evaluated. Checkpoints in the cell cycle include the G1 (restriction), S […], and G2/M[29]. Anticancer medications’ function is to halt cell division at these checkpoints. Treatment with potent cytotoxic (as an anticancer) agents can determine at which phase apoptosis occurs in the cell cycle. […] PC3 and 22RV1 cells were treated with compound 9f at its IC50. The comparison data in Table 6 and Figure 3 indicate that compound 9f (test 2) arrested the cell cycle of 22RV1 and PC3 cells at the G2/M phase by 62.74% and 49.43%, respectively (Figure 3). Also, the cell population in G1 and S phases decreases after treatment (test 2) compared to a negative control (test 1).
To determine the effect of the tested compound on the cell cycle distribution of PC3 and 22RV1 cell lines. Cell cycles can be analysed with checking the cell cycle change compared to the control group. Control cells without any treatment were used as a reference point for determining the cell cycle arrest phase for the test sample. Cell cycle analysis was performed using the Cell Cycle Analysis Kit (ADAMII LS, NanoEntek, Seoul, South Korea). Briefly, cancer cells were first seeded in six-well plates (0.8 × 10^6 cells per well) and then incubated for 24 h at 37 °C in a 5% CO2-containing atmosphere. […] 25 µL of sample mixture was loaded into ADAMII LS assay slide, then the slide was incubated at room temperature for 1 min in the dark and run on the ADAMII LS fluorescence cell analyser. Cell cycle distribution was calculated using ADAMII LS software (ADAMII LS, NanoEntek, Seoul, South Korea).

Assay [5] has as its system PC3 prostate carcinoma cell line. The assay is described as follows: MTT cytotoxicity assay, PC3. Type of assay: cell-based. The note with it: Homo sapiens, 24 h.
Excerpt: as §1, §2, §3

EGFR, sequence (P00533 25-1210): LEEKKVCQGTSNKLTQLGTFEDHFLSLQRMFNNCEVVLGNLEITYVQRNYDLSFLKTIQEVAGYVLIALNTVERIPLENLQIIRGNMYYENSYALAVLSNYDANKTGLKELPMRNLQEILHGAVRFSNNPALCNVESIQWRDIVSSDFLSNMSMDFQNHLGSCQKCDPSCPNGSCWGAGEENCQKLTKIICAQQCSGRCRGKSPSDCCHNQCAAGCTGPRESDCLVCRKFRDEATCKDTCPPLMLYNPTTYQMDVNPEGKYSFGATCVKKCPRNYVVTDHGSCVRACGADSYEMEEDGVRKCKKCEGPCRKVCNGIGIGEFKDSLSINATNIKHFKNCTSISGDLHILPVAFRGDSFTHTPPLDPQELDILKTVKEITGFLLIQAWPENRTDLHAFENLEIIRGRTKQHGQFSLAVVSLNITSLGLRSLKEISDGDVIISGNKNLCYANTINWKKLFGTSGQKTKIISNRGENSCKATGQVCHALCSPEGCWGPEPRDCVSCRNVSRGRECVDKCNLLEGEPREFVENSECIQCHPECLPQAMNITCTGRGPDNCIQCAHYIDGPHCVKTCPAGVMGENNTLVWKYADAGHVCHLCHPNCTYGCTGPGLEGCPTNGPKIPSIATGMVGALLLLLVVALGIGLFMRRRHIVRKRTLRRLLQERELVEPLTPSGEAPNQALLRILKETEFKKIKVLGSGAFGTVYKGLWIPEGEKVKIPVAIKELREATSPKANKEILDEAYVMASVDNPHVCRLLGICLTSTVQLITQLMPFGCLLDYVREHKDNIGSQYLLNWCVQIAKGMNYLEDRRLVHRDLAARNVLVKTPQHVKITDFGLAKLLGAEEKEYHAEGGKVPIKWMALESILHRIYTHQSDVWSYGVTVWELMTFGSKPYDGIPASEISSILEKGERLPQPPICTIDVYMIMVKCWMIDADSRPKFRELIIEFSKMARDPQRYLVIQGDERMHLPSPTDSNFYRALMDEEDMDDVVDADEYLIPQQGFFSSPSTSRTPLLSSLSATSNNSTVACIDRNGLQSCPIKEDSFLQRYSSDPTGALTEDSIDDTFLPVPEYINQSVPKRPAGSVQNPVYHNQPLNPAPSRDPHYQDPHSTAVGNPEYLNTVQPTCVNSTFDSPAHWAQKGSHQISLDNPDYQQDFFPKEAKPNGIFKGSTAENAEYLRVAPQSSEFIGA
HER2, sequence (P04626 23-1255): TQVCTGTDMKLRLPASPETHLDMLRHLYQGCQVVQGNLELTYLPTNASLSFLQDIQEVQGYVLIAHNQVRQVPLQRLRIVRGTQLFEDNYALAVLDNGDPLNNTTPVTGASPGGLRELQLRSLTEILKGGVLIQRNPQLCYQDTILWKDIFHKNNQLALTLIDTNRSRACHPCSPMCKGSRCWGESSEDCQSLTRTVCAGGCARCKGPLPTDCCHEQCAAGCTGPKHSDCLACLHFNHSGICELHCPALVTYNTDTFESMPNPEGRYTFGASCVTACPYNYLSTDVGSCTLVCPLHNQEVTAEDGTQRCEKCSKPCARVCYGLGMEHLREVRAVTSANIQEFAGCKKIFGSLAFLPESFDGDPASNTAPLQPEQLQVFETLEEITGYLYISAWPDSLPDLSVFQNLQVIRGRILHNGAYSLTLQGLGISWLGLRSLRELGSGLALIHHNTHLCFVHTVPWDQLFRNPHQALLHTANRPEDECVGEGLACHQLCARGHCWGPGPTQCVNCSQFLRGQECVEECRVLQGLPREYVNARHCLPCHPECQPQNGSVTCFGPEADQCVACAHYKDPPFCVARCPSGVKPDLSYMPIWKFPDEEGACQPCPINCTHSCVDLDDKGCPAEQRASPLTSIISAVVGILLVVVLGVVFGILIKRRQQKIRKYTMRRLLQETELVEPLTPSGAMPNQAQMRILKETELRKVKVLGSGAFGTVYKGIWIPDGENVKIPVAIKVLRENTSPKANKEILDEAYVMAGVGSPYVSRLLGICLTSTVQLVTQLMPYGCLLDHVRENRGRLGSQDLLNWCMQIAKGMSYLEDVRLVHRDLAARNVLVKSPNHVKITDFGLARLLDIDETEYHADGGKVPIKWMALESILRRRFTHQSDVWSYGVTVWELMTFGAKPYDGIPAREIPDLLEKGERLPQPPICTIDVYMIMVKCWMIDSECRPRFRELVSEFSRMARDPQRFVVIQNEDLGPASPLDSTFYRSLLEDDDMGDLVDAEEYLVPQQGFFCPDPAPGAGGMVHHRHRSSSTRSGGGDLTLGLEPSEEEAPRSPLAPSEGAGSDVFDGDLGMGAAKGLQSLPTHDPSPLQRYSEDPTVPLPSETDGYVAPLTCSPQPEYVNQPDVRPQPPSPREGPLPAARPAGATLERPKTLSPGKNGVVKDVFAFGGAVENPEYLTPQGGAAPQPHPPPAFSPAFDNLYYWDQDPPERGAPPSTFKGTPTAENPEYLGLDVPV
T3 sequence (P11362 22-822): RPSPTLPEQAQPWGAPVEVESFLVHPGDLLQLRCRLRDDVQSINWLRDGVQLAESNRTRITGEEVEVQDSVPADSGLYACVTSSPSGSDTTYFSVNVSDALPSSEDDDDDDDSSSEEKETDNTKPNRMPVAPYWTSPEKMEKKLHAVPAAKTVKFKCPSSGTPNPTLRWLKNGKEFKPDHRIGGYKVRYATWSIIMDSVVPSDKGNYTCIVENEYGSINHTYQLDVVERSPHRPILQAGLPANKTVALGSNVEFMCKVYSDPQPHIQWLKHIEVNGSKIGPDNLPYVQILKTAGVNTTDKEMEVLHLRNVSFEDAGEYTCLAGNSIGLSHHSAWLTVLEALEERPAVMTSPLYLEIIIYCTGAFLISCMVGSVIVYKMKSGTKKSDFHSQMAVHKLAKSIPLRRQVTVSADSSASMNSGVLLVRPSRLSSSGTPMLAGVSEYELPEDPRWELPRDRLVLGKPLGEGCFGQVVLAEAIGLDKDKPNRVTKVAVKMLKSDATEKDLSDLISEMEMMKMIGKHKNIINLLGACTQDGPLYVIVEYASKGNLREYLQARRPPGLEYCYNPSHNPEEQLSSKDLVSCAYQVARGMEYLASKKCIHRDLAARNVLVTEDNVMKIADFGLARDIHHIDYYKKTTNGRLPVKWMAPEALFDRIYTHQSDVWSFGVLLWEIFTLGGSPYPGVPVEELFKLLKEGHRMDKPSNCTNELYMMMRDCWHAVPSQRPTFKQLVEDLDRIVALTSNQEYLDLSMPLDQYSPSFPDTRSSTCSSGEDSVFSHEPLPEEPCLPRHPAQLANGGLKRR
T2 sequence (P35968 20-1356): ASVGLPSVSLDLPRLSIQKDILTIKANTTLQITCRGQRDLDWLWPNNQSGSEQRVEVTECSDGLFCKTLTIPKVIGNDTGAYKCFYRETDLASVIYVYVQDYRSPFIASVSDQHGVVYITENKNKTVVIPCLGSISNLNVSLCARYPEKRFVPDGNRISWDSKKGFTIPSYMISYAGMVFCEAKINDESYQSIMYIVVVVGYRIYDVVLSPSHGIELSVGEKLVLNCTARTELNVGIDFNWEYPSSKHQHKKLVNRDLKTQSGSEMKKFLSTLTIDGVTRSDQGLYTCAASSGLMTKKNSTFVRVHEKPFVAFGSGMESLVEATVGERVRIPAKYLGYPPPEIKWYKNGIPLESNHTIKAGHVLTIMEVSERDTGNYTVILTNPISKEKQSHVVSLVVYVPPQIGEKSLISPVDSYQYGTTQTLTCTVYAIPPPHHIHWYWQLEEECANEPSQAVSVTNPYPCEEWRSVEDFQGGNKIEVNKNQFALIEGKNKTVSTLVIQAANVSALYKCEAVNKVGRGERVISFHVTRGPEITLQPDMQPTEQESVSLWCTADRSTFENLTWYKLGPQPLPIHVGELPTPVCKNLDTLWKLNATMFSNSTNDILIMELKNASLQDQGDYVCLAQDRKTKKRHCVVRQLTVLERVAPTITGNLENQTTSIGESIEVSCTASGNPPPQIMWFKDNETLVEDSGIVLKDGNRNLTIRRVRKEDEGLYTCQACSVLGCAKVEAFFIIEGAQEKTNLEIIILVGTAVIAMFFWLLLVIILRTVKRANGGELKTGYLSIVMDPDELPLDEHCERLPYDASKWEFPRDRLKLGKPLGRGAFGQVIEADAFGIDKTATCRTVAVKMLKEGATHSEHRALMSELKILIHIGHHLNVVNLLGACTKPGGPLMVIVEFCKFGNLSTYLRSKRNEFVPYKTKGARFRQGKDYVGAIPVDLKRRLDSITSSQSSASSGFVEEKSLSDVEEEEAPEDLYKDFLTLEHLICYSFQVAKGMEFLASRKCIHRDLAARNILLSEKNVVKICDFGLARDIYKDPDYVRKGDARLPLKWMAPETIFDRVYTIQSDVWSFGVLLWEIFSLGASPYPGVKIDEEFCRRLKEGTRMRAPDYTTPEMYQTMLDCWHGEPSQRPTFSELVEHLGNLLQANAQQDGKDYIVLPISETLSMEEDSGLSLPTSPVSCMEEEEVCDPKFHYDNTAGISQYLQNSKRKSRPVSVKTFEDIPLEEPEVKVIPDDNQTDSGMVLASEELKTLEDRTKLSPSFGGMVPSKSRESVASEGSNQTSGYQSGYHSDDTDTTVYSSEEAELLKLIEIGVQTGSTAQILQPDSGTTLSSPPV

In the case of `COc1cc2ncnc(Nc3ccc(Oc4cccc(C(F)(F)F)c4)c(Cl)c3)c2cc1OCCCCn1ccnc1[N+](=O)[O-]` [Compound 9f, N-(3-Chloro-4-(3-(trifluoromethyl)phenoxy)phenyl)-7-methoxy-6-(4-(2-nitro-1H-imidazol-1-yl)butoxy)quinazolin-4-amine], the IC50 is 2.7 nM in assay [1], 2.3 nM at EGFR, 234 nM against HER2 and 1 nM in assay [5]. For the same compound, the inhibition at 10 µM in assay [2] is 0.8%; on EGFR (read-out: % kinase inhibition EGFR) it was 99.3%; in assay [3], -4.46%; at HER2 (read-out: % kinase inhibition HER2), 98%; in assay [4], 5.54%. For the same compound, the “fold of potency over EGFR compared to TAK-285” value at EGFR (ratio of IC50 values) is given as 10 fold. Further, the “fold of potency over EGFR compared to staurosporine” value on EGFR (ratio of IC50 values) was found to be 38 fold. Also, the “G0/G1 phase Percent” value in the assay with 22RV1 cells is 6.08%. The “G2/M phase Percent” value with 22RV1 cells stood at 62.74%. Also, the “S phase Percent” value in the assay on 22RV1 cells was determined as 9.13%.

As usually defined, the IC50 is the point on the concentration scale where inhibition reaches its midpoint. Broadly, the inhibition is the change of the read-out against control, counted positive when it falls.
